{"source": "PubChem BioAssay AID2060882", "about": "(Molecular Pharmacology Branch, DTP, NCI, 2025);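 also: spheroids exposed to compound for seven days before readout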;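 as to viability, T/C: 100% = DMSO vehicle control wells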", "system": "898857-211-R-J1-PDC complex spheroids, growth % test/control", "experiment": "Anticancer human tumor 898857-211-R-J1-PDC patient-derived melanoma cell line growth inhibition [RAS]", "details": "for IC50: curve of first compound; for viability, T/C: stronger effect = lower value", "procedure,_shortened": "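Multi-cell-type spheroids: tumor cells plus HUVEC endothelial cells and mesenchymal stem cells. RAS-pathway inhibitors were combined with targeted agents, each dosed in half-log steps down from clinical Cmax, or from 10 microM when Cmax was unknown.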", "key": {"[1]": {"details": "second compound 0.00316 µM, first compound 0.0316 µM"}, "[2]": {"details": "second compound 0.00316 µM, first compound 0.1 µM"}, "[3]": {"details": "second compound 0.01 µM, first compound 0.0316 µM"}, "[4]": {"details": "second compound 0.01 µM, first compound 0.1 µM"}, "[5]": {"details": "second compound 0.0316 µM, first compound 0.0316 µM"}, "[6]": {"details": "second compound 0.0316 µM, first compound 0.1 µM"}, "[7]": {"details": "second compound 0.1 µM, first compound 0.0316 µM"}, "[8]": {"details": "second compound 0.1 µM, first compound 0.1 µM"}, "[9]": {"details": "second compound 0.316 µM, first compound 0.0316 µM"}, "[10]": {"details": "second compound 0.316 µM, first compound 0.1 µM"}, "[11]": {"details": "second compound 1 µM, first compound 0.0316 µM"}, "[12]": {"details": "second compound 1 µM, first compound 0.1 µM"}}, "data": [{"smiles": "CC(C)NCC(C(=O)N1CCN(c2ncnc3c2C(C)CC3O)CC1)c1ccc(Cl)cc1", "note": "(centres undefined) + C=CC(=O)N1CCN(c2nc(OCC3CCCN3C)nc3c(F)c(-c4nc(N)cc(C)c4C(F)(F)F)c(Cl)cc23)C(C)C1", "values": [{"measurement": "IC50", "setting": "second compound 0.00316 µM", "value": "> 10000", "unit": "nM"}, {"measurement": "IC50", "setting": "second compound 0.01 µM", "value": "> 10000", "unit": "nM"}, {"measurement": "IC50", "setting": "second compound 0.0316 µM", "value": "> 10000", "unit": "nM"}, {"measurement": "IC50", "setting": "second compound 0.1 µM", "value": "> 10000", "unit": "nM"}, {"measurement": "IC50", "setting": "second compound 0.316 µM", "value": "> 10000", "unit": "nM"}, {"measurement": "IC50", "setting": "second compound 1 µM", "value": "> 10000", "unit": "nM"}, {"measurement": "viability, T/C", "setting": "[1]", "value": 108, "unit": "%"}, {"measurement": "viability, T/C", "setting": "[2]", "value": 99.8, "unit": "%"}, {"measurement": "viability, T/C", "setting": "second compound 0.00316 µM, first compound 0.316 µM", "value": 97.5, "unit": "%"}, {"measurement": "viability, T/C", "setting": "second compound 0.00316 µM, first compound 1 µM", "value": 89.2, "unit": "%"}, {"measurement": "viability, T/C", "setting": "second compound 0.00316 µM, first compound 3.16 µM", "value": 81.2, "unit": "%"}, {"measurement": "viability, T/C", "setting": "second compound 0.00316 µM, first compound 10 µM", "value": 70.1, "unit": "%"}, {"measurement": "viability, T/C", "setting": "[3]", "value": 101, "unit": "%"}, {"measurement": "viability, T/C", "setting": "[4]", "value": 104, "unit": "%"}, {"measurement": "viability, T/C", "setting": "second compound 0.01 µM, first compound 0.316 µM", "value": 104, "unit": "%"}, {"measurement": "viability, T/C", "setting": "second compound 0.01 µM, first compound 1 µM", "value": 85.8, "unit": "%"}, {"measurement": "viability, T/C", "setting": "second compound 0.01 µM, first compound 3.16 µM", "value": 85.9, "unit": "%"}, {"measurement": "viability, T/C", "setting": "second compound 0.01 µM, first compound 10 µM", "value": 70.7, "unit": "%"}, {"measurement": "viability, T/C", "setting": "[5]", "value": 111, "unit": "%"}, {"measurement": "viability, T/C", "setting": "[6]", "value": 101, "unit": "%"}, {"measurement": "viability, T/C", "setting": "second compound 0.0316 µM, first compound 0.316 µM", "value": 114, "unit": "%"}, {"measurement": "viability, T/C", "setting": "second compound 0.0316 µM, first compound 1 µM", "value": 103, "unit": "%"}, {"measurement": "viability, T/C", "setting": "second compound 0.0316 µM, first compound 3.16 µM", "value": 78.9, "unit": "%"}, {"measurement": "viability, T/C", "setting": "second compound 0.0316 µM, first compound 10 µM", "value": 60.8, "unit": "%"}, {"measurement": "viability, T/C", "setting": "[7]", "value": 118, "unit": "%"}, {"measurement": "viability, T/C", "setting": "[8]", "value": 110, "unit": "%"}, {"measurement": "viability, T/C", "setting": "second compound 0.1 µM, first compound 0.316 µM", "value": 102, "unit": "%"}, {"measurement": "viability, T/C", "setting": "second compound 0.1 µM, first compound 1 µM", "value": 88.8, "unit": "%"}, {"measurement": "viability, T/C", "setting": "second compound 0.1 µM, first compound 3.16 µM", "value": 91.8, "unit": "%"}, {"measurement": "viability, T/C", "setting": "second compound 0.1 µM, first compound 10 µM", "value": 66.7, "unit": "%"}, {"measurement": "viability, T/C", "setting": "[9]", "value": 114, "unit": "%"}, {"measurement": "viability, T/C", "setting": "[10]", "value": 129, "unit": "%"}, {"measurement": "viability, T/C", "setting": "second compound 0.316 µM, first compound 0.316 µM", "value": 126, "unit": "%"}, {"measurement": "viability, T/C", "setting": "second compound 0.316 µM, first compound 1 µM", "value": 112, "unit": "%"}, {"measurement": "viability, T/C", "setting": "second compound 0.316 µM, first compound 3.16 µM", "value": 93.3, "unit": "%"}, {"measurement": "viability, T/C", "setting": "second compound 0.316 µM, first compound 10 µM", "value": 71.4, "unit": "%"}, {"measurement": "viability, T/C", "setting": "[11]", "value": 116, "unit": "%"}, {"measurement": "viability, T/C", "setting": "[12]", "value": 121, "unit": "%"}, {"measurement": "viability, T/C", "setting": "second compound 1 µM, first compound 0.316 µM", "value": 117, "unit": "%"}, {"measurement": "viability, T/C", "setting": "second compound 1 µM, first compound 1 µM", "value": 112, "unit": "%"}, {"measurement": "viability, T/C", "setting": "second compound 1 µM, first compound 3.16 µM", "value": 97.5, "unit": "%"}, {"measurement": "viability, T/C", "setting": "second compound 1 µM, first compound 10 µM", "value": 70.4, "unit": "%"}]}, {"smiles": "CC(C)n1nc(-c2ccc3oc(N)nc3c2)c2c(N)ncnc21", "note": "+ C=CC(=O)N1CCN(c2nc(OCC3CCCN3C)nc3c(F)c(-c4nc(N)cc(C)c4C(F)(F)F)c(Cl)cc23)C(C)C1", "values": [{"measurement": "IC50", "setting": "second compound 0.00316 µM", "value": 28.8, "unit": "nM"}, {"measurement": "IC50", "setting": "second compound 0.01 µM", "value": 33.6, "unit": "nM"}, {"measurement": "IC50", "setting": "second compound 0.0316 µM", "value": 26.9, "unit": "nM"}, {"measurement": "IC50", "setting": "second compound 0.1 µM", "value": 35, "unit": "nM"}, {"measurement": "IC50", "setting": "second compound 0.316 µM", "value": 34.5, "unit": "nM"}, {"measurement": "IC50", "setting": "second compound 1 µM", "value": 37.9, "unit": "nM"}, {"measurement": "viability, T/C", "setting": "second compound 0.00316 µM, first compound 0.000316 µM", "value": 103, "unit": "%"}, {"measurement": "viability, T/C", "setting": "second compound 0.00316 µM, first compound 0.001 µM", "value": 96.3, "unit": "%"}, {"measurement": "viability, T/C", "setting": "second compound 0.00316 µM, first compound 0.00316 µM", "value": 99.6, "unit": "%"}, {"measurement": "viability, T/C", "setting": "second compound 0.00316 µM, first compound 0.01 µM", "value": 75.9, "unit": "%"}, {"measurement": "viability, T/C", "setting": "[1]", "value": 48.5, "unit": "%"}, {"measurement": "viability, T/C", "setting": "[2]", "value": 19.9, "unit": "%"}, {"measurement": "viability, T/C", "setting": "second compound 0.01 µM, first compound 0.000316 µM", "value": 107, "unit": "%"}, {"measurement": "viability, T/C", "setting": "second compound 0.01 µM, first compound 0.001 µM", "value": 95.1, "unit": "%"}, {"measurement": "viability, T/C", "setting": "second compound 0.01 µM, first compound 0.00316 µM", "value": 92.1, "unit": "%"}, {"measurement": "viability, T/C", "setting": "second compound 0.01 µM, first compound 0.01 µM", "value": 77.9, "unit": "%"}, {"measurement": "viability, T/C", "setting": "[3]", "value": 49.9, "unit": "%"}, {"measurement": "viability, T/C", "setting": "[4]", "value": 21.3, "unit": "%"}, {"measurement": "viability, T/C", "setting": "second compound 0.0316 µM, first compound 0.000316 µM", "value": 108, "unit": "%"}, {"measurement": "viability, T/C", "setting": "second compound 0.0316 µM, first compound 0.001 µM", "value": 99.9, "unit": "%"}, {"measurement": "viability, T/C", "setting": "second compound 0.0316 µM, first compound 0.00316 µM", "value": 91.7, "unit": "%"}, {"measurement": "viability, T/C", "setting": "second compound 0.0316 µM, first compound 0.01 µM", "value": 77.5, "unit": "%"}, {"measurement": "viability, T/C", "setting": "[5]", "value": 44.2, "unit": "%"}, {"measurement": "viability, T/C", "setting": "[6]", "value": 20.4, "unit": "%"}, {"measurement": "viability, T/C", "setting": "second compound 0.1 µM, first compound 0.000316 µM", "value": 104, "unit": "%"}, {"measurement": "viability, T/C", "setting": "second compound 0.1 µM, first compound 0.001 µM", "value": 102, "unit": "%"}, {"measurement": "viability, T/C", "setting": "second compound 0.1 µM, first compound 0.00316 µM", "value": 97.4, "unit": "%"}, {"measurement": "viability, T/C", "setting": "second compound 0.1 µM, first compound 0.01 µM", "value": 85, "unit": "%"}, {"measurement": "viability, T/C", "setting": "[7]", "value": 52.7, "unit": "%"}, {"measurement": "viability, T/C", "setting": "[8]", "value": 19.8, "unit": "%"}, {"measurement": "viability, T/C", "setting": "second compound 0.316 µM, first compound 0.000316 µM", "value": 116, "unit": "%"}, {"measurement": "viability, T/C", "setting": "second compound 0.316 µM, first compound 0.001 µM", "value": 103, "unit": "%"}, {"measurement": "viability, T/C", "setting": "second compound 0.316 µM, first compound 0.00316 µM", "value": 109, "unit": "%"}, {"measurement": "viability, T/C", "setting": "second compound 0.316 µM, first compound 0.01 µM", "value": 89.3, "unit": "%"}, {"measurement": "viability, T/C", "setting": "[9]", "value": 52.4, "unit": "%"}, {"measurement": "viability, T/C", "setting": "[10]", "value": 20.8, "unit": "%"}, {"measurement": "viability, T/C", "setting": "second compound 1 µM, first compound 0.000316 µM", "value": 122, "unit": "%"}, {"measurement": "viability, T/C", "setting": "second compound 1 µM, first compound 0.001 µM", "value": 115, "unit": "%"}, {"measurement": "viability, T/C", "setting": "second compound 1 µM, first compound 0.00316 µM", "value": 111, "unit": "%"}, {"measurement": "viability, T/C", "setting": "second compound 1 µM, first compound 0.01 µM", "value": 84.5, "unit": "%"}, {"measurement": "viability, T/C", "setting": "[11]", "value": 56, "unit": "%"}, {"measurement": "viability, T/C", "setting": "[12]", "value": 22.7, "unit": "%"}]}]}
